Here are results for 5 compounds from PMC12386367, “Importin α3 Is Tolerant to Nuclear Localization Signal Chirality” (International Journal of Molecular Sciences, 2025).

Read-outs that look alike come from different tables or passages of the source. Non-standard residues stand in square brackets, D forms with d. Residues, ends and D or L forms follow the SMILES beside them. d(pT) = C[C@H](OP(=O)(O)O)[C@@H](N)C(=O)O

The target in data set [1] is T1, Impα3 (Homo sapiens, UniProt O00629).
T1 construct: Human importin α3 isoform (residues 1–521); made in house
T1 sequence (O00629 1-521): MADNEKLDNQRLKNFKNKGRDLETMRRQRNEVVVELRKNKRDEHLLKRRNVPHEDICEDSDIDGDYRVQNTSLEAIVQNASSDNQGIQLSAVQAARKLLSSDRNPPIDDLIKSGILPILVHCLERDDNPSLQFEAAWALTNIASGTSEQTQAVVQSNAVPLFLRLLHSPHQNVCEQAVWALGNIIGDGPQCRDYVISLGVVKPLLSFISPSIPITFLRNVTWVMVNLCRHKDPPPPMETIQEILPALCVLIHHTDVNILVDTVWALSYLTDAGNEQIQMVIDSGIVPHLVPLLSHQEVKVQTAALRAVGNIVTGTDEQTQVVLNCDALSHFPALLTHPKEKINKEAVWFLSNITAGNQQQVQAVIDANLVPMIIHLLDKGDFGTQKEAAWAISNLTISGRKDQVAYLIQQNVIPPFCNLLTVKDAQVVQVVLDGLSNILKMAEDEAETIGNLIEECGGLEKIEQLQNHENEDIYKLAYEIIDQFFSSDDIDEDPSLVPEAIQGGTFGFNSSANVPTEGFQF
Kind of data set: Biolayer interferometry (BLI) binding to Impα3. As to conditions: peptide 1–10 μM, 25 °C; for kon: BLItz, Impα3 immobilized via His-tag (0.25 μM), 10 × kinetics buffer, error from pseudo-first order fit, at least two repeats; for koff: Impα3 immobilized via His-tag, error from pseudo-first order fit (Equation 5). The protocol: (§1) The association (kon) and dissociation (koff) rate constants of the binding of D-NLS peptides to either Impα3 or ∆Impα3 were determined by using a BLItz system (ForteBio, Pall, Barcelona, Spain). The buffer used in the experiments was that recommended by the manufacturer. […] The peptide concentrations were in a range from 1 to 10 μM during the association step. The general scheme of the protein association/dissociation reactions in the BLItz system for the D-NLS peptides was as follows: 30 s of initial baseline acquisition with the 10 × kinetics buffer (provided by the manufacturer); 120 s of loading either Impα3 and ∆Impα3 into the biosensor; 30 s of baseline acquisition with the 10 × kinetics buffer; 120 s of association of each peptide to the biosensor (which had been previously loaded with the importin species); and 120 s of monitoring of the dissociation of each peptide from the biosensor. All experiments were carried out at 25 °C.
(§2) Fittings of the BLI sensorgrams was carried out by using KaleidaGraph, as previously described. The interferometry response during the association step, R(t) (measured in response units, RU), and the binding rate, dR(t)/dt, could be used to evaluate the kinetics of the formation of the complex between Impα3/∆Impα3 and each D-NLS, according to:(2) dR/dt=konD-NLSRmax−Rt−koffR(t) where Rmax is proportional to the total concentration of biosensor-bound importin species; and [D-NLS] represents the concentration of the corresponding D-NLS peptide.
(§3) In Equation (2), R(t) is given by:(3) Rt= Req−Reqe^(−kobs t−t0) where Req is the steady-state (or equilibrium) response obtained at infinite time, when dR(t)/dt = 0, and t0 = 180 s is the time at which the association step between biosensor-immobilized Impα3/∆Impα3 and D-NLS in the solution started. We fitted the experimentally obtained R(t) under any condition as:(4) Rt= Req−Reqe^−kobs t−t0−R’eq(t−t0) where R^′eq was included to consider the lineal drift observed at longer times.
(§4) The dissociation process was always fitted to a single exponential, with R(t) given by:(6) Rt=R1 e^(−kofft−t0)−R^″eq(t−t0) where t0 = 300 is the time at which the dissociation of the D-NLS from the biosensor-bound Impα3/∆Impα3 started in our experimental set-up, R1 is the response level when dissociation starts, and the parameter R^″eq considers the linear drift observed at longer times.
(§5) The experiments were repeated at least twice for each peptide with each importin species.

Data set [2] in a line: Translational diffusion NMR (DOSY) of NLS peptides. Type of data set: physicochemical. As to conditions: ~100 μM peptide; for Diffusion coefficient D: 50 mM deuterated Tris pH 7.2, 100% D2O, 10 °C. The text has this:
For the four peptides, we measured the experimental value of D for dioxane ranging from (1.2 ± 0.1) × 10^−5 to (1.05 ± 0.02) × 10^−5 cm^2 s^−1 in each solution containing the corresponding peptide; we assumed a hydrodynamic radius of 2.12 Å for dioxane (Table 1) under any condition. […] Furthermore, the values of D were similar for the D- and L-peptides, and the latter were already being described as disordered. Thus, we can conclude that the four D-peptides were monomeric and disordered, like the L-form counterparts, and, then, there was no difference in the hydrodynamic properties of the peptides by changing the enantiomeric nature of the residues.
The NMR spectra were acquired at 10 °C on a Bruker Avance III spectrometer (Bruker GmbH, Mannheim, Germany), equipped with a triple-resonance probe and z-pulse field gradients. All NMR experiments with D-NLS peptides were carried out in 50 mM deuterated Tris buffer (not corrected for isotope effects), pH 7.2. Spectra were calibrated with TSP, by considering pH-dependent changes in its chemical shifts; probe temperature was calibrated with pure methanol.
The typical D-NLS peptide concentrations in DOSY experiments were ~100 μM, and 128 scans were acquired, in which the gradient strength was varied linearly in sixteen steps, between 2 and 95% of the total power of the gradient coil. Measurements of the translational self-diffusion coefficient, D, were performed with the pulsed-gradient spin-echo sequence in the presence of 100% D2O. Details on the experimental conditions and fitting of the resulting curves have been described elsewhere. Gradient strength was calibrated by using the value of D for the residual proton water signal in a sample containing 100% D2O, in a 5 mm tube [23]. Gradient length was 2.5 ms; the time between the two pulse gradients in the sequence was 250 ms; and the recovery delay between the bipolar gradients was 100 μs. The signals from methyl groups between 0.8 and 1.0 ppm were used for peak integration, for all the D-NLS peptides. A final concentration of 1% of dioxane, which was assumed to have a hydrodynamic radius Rh of 2.12 Å [23], was added to the solution of each peptide.

In data set [3] the target is T2, ∆Impα3 (Homo sapiens, UniProt O00629).
T2 construct: IBB-depleted species of Impα3 (residues 64–521 of the intact protein); made in house
T2 sequence (O00629 64-521): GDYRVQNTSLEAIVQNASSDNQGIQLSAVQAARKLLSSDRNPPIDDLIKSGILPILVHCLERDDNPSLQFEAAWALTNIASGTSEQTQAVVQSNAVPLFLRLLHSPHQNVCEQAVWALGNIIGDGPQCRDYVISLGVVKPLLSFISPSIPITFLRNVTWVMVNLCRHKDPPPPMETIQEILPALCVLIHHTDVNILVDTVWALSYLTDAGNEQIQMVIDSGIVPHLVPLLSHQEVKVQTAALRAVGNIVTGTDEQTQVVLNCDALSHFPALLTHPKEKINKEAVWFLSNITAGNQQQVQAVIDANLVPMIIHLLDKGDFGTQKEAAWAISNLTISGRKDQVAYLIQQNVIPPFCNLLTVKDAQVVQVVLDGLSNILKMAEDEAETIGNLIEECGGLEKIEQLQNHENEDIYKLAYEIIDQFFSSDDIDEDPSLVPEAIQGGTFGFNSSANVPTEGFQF
Nature of the data set: Biolayer interferometry (BLI) binding to ∆Impα3. Conditions: peptide 1–10 μM, 25 °C; for kon: BLItz, ∆Impα3 immobilized via His-tag (0.25 μM), 10 × kinetics buffer, error from pseudo-first order fit, at least two repeats; for koff: ∆Impα3 immobilized via His-tag, error from pseudo-first order fit (Equation 5). The protocol: as §1, §2, §3, §4, §5

Data set [4] deals with L-NLS-NUPR1phospho NLS (Homo sapiens) (UniProt O60356). As to conditions: cited from earlier work.
Data set [5] addresses L-NLS-PADI NLS (Homo sapiens) (UniProt Q9UM07). Kind of data set: ITC. As to conditions: cited from earlier work.
The target is the same in data set [6]. Nature of the data set: fluorescence. As to conditions: cited from earlier work.
Data set [7] deals with L-NLS-NUPR1L NLS (Homo sapiens) (UniProt A6NF83). Kind of data set: fluorescence. As to conditions: cited from earlier work.
For data set [8], the target named is L-NLS-NUPR1 NLS (Homo sapiens) (UniProt O60356). As to conditions: cited from earlier work.
The target in data set [9] is L-NLS-NUPR1 (Homo sapiens) (UniProt O60356). Kind of data set: ITC. Conditions: cited from earlier work.
Data set [10] addresses L-NLS-NUPR1phospho (Homo sapiens) (UniProt O60356). Nature of the data set: ITC. Conditions: cited from earlier work.
The target of data set [11] is L-NLS-PADI (NLS2-PADI4) (Homo sapiens) (UniProt Q9UM07). Nature of the data set: ITC. Conditions: cited from earlier work.
Data set [12] has as its target L-NLS-NUPR1L (Homo sapiens) (UniProt A6NF83). Kind of data set: fluorescence. As to conditions: cited from earlier work.
The target in data set [13] is L-NLS-PADI (NLS2-PADI4) (Homo sapiens) (UniProt Q9UM07). Kind of data set: fluorescence. As to conditions: cited from earlier work.

L-NLS-PADI (NLS2-PADI4) (Homo sapiens), sequence (Q9UM07 498-526): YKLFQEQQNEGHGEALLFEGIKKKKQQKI
L-NLS-NUPR1 (Homo sapiens), sequence (O60356 54-74): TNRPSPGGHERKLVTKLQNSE
L-NLS-NUPR1L (Homo sapiens), sequence (A6NF83 51-74): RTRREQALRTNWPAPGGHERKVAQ
L-NLS-NUPR1L NLS (Homo sapiens), sequence (A6NF83 60-80): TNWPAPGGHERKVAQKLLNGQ

Take `CC(=O)N[C@H](Cc1ccc(O)cc1)C(=O)N[C@@H](C(=O)N[C@H](CC(N)=O)C(=O)N[C@H](CCCNC(=N)N)C(=O)N1CCC[C@@H]1C(=O)N[C@H](CO)C(=O)N1CCC[C@@H]1C(=O)NCC(=O)NCC(=O)N[C@H](Cc1c[nH]cn1)C(=O)N[C@H](CCC(=O)O)C(=O)N[C@H](CCCNC(=N)N)C(=O)N[C@H](CCCCN)C(=O)N[C@H](CC(C)C)C(=O)N[C@@H](C(=O)N[C@@H](C(=O)N[C@H](CCCCN)C(=O)N[C@H](CC(C)C)C(=O)N[C@H](CCC(N)=O)C(=O)N[C@H](CC(N)=O)C(=O)N[C@H](CO)C(=O)N[C@H](CCC(=O)O)C(N)=O)[C@H](C)OP(=O)(O)O)C(C)C)[C@H](C)O` [D-NLS-NUPR1phospho] (Ac-[dY][dT][dN][dR][dP][dS][dP]GG[dH][dE][dR][dK][dL][dV][d(pT)][dK][dL][dQ][dN][dS][dE]-NH2): the kon in [1] (read-out: kon) was 10000 ± 3000 M⁻¹ s⁻¹; in data set [3] (read-out: kon), 6000 ± 1000 M⁻¹ s⁻¹. Further, the dissociation rate constant (koff) is 0.13 ± 0.02 s⁻¹ in data set [1] and 0.05 ± 0.01 s⁻¹ in data set [3]. Moreover, the “Diffusion coefficient D” value in data set [2] is listed as 2.2 ± 0.2 cm^2 s^−1 × 10^6.
For `CC[C@@H](C)[C@@H](NC(=O)[C@@H](CCCCN)NC(=O)[C@@H](CCC(N)=O)NC(=O)[C@@H](CCC(N)=O)NC(=O)[C@@H](CCCCN)NC(=O)[C@@H](CCCCN)NC(=O)[C@@H](CCCCN)NC(=O)[C@@H](CCCCN)NC(=O)[C@H](NC(=O)CNC(=O)[C@@H](CCC(=O)O)NC(=O)[C@@H](Cc1ccccc1)NC(=O)[C@@H](CC(C)C)NC(=O)[C@@H](CC(C)C)NC(=O)[C@@H](C)NC(=O)[C@@H](CCC(=O)O)NC(=O)CNC(=O)[C@@H](Cc1c[nH]cn1)NC(=O)CNC(=O)[C@@H](CCC(=O)O)NC(=O)[C@@H](CC(N)=O)NC(=O)[C@@H](CCC(N)=O)NC(=O)[C@@H](CCC(N)=O)NC(=O)[C@@H](CCC(=O)O)NC(=O)[C@@H](CCC(N)=O)NC(=O)[C@@H](Cc1ccccc1)NC(=O)[C@@H](CC(C)C)NC(=O)[C@@H](CCCCN)NC(C)=O)[C@H](C)CC)C(N)=O` [D-NLS-PADI] (Ac-[dK][dL][dF][dQ][dE][dQ][dQ][dN][dE]G[dH]G[dE][dA][dL][dL][dF][dE]G[dI][dK][dK][dK][dK][dQ][dQ][dK][dI]-NH2), in that order: 45000 ± 20000 M⁻¹ s⁻¹, 60000 ± 10000 M⁻¹ s⁻¹, 0.6 ± 0.1 s⁻¹, 0.37 ± 0.05 s⁻¹ and 1.0 ± 0.1 cm^2 s^−1 × 10^6.
In the case of Importin α3 (from UniProt O00629), the Kd in [4] is 27 µM; in data set [5] it was 23 µM; in [6], 4 µM; in data set [7], 3000 nM; in [8], 1700 nM.
As for “YT^54NRPSPGGHERKLVTKLQNSE^74 [D-NLS-NUPR1, D-enantiomeric, isolated NLS region of NUPR1 (residues 54–74 of the intact protein)]”, the kon turned out to be 50000 ± 10000 M⁻¹ s⁻¹ in [1] and 110000 ± 20000 M⁻¹ s⁻¹ in data set [3]. In addition, the “Hydrodynamic radius Rh” value in data set [2] (D-peptides, by comparison with D of dioxane (1%, Rh 2.12 Å), 50 mM deuterated Tris pH 7.2, 10 °C) is reported as 9 ± 1 Å. In addition, in [2], the “Diffusion coefficient D” value turned out to be 1.78 ± 0.08 cm^2 s^−1 × 10^6.
Take “importin α3 (Impα3) 1-521 (from UniProt O00629)”: the Kd in [9] is 1700 nM; in data set [10], 27 µM; in [11], 23 µM; in data set [12] it was 3000 nM; in [13] it was 4 µM.
